# Measurements as given in article PMC7699381, “Rare-Earth Metal Complexes of the Antibacterial Drug Oxolinic Acid: Synthesis, Characterization, DNA/Protein Binding and Cytotoxicity Studies” (Molecules, 2020).
# Tests used:
# [1] = biological target: T1, Human serum albumin (HSA) (Homo sapiens, UniProt P02768); experiment: Fluorescence quenching of human serum albumin; conditions: for Ka (association binding constant), HSA / n (Hill Coefficient), HSA / n (Number of Binding Sites), HSA / Ksv (Stern-Volmer constant), HSA / Kq (bimolecular quenching constant), HSA / fa (fraction of fluorophore accessible to the quencher), HSA: 298 K; for Ksv (Stern-Volmer constant), HSA: 0–8 µM compound, pH 7.4; for Kq (bimolecular quenching constant), HSA: from KSV = Kq τ0; for fa (fraction of fluorophore accessible to the quencher), HSA: modified Stern-Volmer
# [2] = system: MDA-MB 231 (human breast adenocarcinoma); experiment: MTS cytotoxicity assay, MDA-MB 231 cells; assay type: cell-based; conditions: 48 h of incubation
# Procedure: (§1) For the evaluation of the cytotoxic effects of the complexes and ligand two human cancer cell lines were used, namely MDA-MB 231 (human breast adenocarcinoma) and LoVo (human colon adenocarcinoma); a normal cell line, human umbilical vein endothelial cells (HUVEC), was used as a reference. […] After 24 h and 48 h, respectively, cell viability was evaluated through MTS assay (data shown in Figures S16–S18) and the IC50 values were calculated (Table 5). The cytotoxicity assay is based on the ability of metabolically active cells to reduce MTS, a yellow tetrazolium salt, to the colored formazan, soluble in the culture medium; the concentration of formazan can be spectrophotometrically determined. […] PES is a cationic dye with high chemical stability that binds to MTS and forms a stable solution. […] The reduced MTS to formazan was spectrophotometrically measured at λ = 492 nm. The test was run on two cancer cell lines, LoVo and MDA-MB 231, and on a normal cell line, HUVEC. […] Cell viability data were obtained in triplicate (n = 3) and expressed as mean values ± standard deviations (SD). […] All assays were performed in 96-well microtiter plates with flat bottom (Falcon), using CellTiter 96 Aqueous One Solution Cell Proliferation Assay (Promega), an MTS-based colorimetric assay. The formazan was spectrophotometrically measured using the Tecan GENios Spectrophotometer.
# [3] = system: HUVEC (normal human umbilical vein endothelial cells); experiment: MTS cytotoxicity assay, HUVEC normal cells; assay type: cell-based; conditions: 48 h of incubation
# Procedure: as §1
# [4] = system: LoVo (human colon adenocarcinoma); experiment: MTS cytotoxicity assay, LoVo cells; assay type: cell-based; conditions: 48 h of incubation
# Procedure: as §1
# [5] = biological target: T1, Human serum albumin (HSA)
# [6] = system: CT-DNA (double-stranded calf-thymus DNA); experiment: DNA binding by UV-Vis spectra (titration with CT-DNA); conditions: 20 µM compound, 0–40 µM DNA, Tris-HCl pH 7.4, room temperature
# Apo-transferrin (apo-Tf) = biological target: T2, Apo-transferrin (apo-Tf) (Homo sapiens, UniProt P02787); experiment: Fluorescence quenching of apo-transferrin; assay type: binding; conditions: for Ka (association binding constant), apo-Tf / n (Hill Coefficient), apo-Tf / n (Number of Binding Sites), apo-Tf / Ksv (Stern-Volmer constant), apo-Tf / Kq (bimolecular quenching constant), apo-Tf / fa (fraction of fluorophore accessible to the quencher), apo-Tf / Kd: 298 K; for Ksv (Stern-Volmer constant), apo-Tf: 0–8 µM compound, pH 7.4; for Kq (bimolecular quenching constant), apo-Tf: from KSV = Kq τ0; for fa (fraction of fluorophore accessible to the quencher), apo-Tf: modified Stern-Volmer; for Kd: read-out: Kd, apo-Tf
# T2 construct: purchased Sigma Aldrich Chemical Co. (Schnelldorf, Germany)
# EB-DNA system (CT-DNA) = experiment: Competitive binding assay with ethidium bromide (EB) through fluorescence spectroscopy; set-up: species or system calf; conditions: 10 µM CT-DNA, 2 µM EB; for Ksv (Stern-Volmer quenching constant, EB-DNA system): 0–40 µM compound, λex 500 nm; for K50 (EB Displacement Assay): concentration corresponding to 50% binding
# Text: The manner of binding to the DNA macromolecule can be investigated through competitive binding studies with ethidium bromide (3,8-diamino-5-ethyl-6-phenylphenanthridinium bromide), a fluorescent dye; due to its aromatic ring, it can intercalate between two adjacent base pairs in the DNA structure and form a complex which emits fluorescent light; displacing EB results in a quenching effect. The Stern-Volmer constant (KSV) and the dissociation constant (K50) have been calculated from the resulting data.
# Competitive binding studies were carried out on a Jasco FP 6500 fluorometer at room temperature, using quartz cells of 1 cm path-length. The fluorescence spectra were recorded on 1.6 mL samples containing 10 µM CT-DNA and 2 µM EB in the absence and presence of increasing amounts (0–40 µM with an increment of 5 µM) of complexes and free ligands, respectively, after being kept in contact for 10 min at room temperature, under continuous stirring and in the dark. The excitation wavelength used was 500 nm and the spectra was recorded in the 520–800 nm range. Two control samples were used, the first one containing DMSO, DNA and EB and the second one just the complex.
# Data from the assay can be interpreted using the classical Stern-Volmer equation (Equation (3)):(3) F0/F=1+ KSV·[Q] where F0 and F are the fluorescence intensities of the EB-DNA samples in the absence and presence of the tested compounds and [Q] is the concentration of the compound; KSV is the Stern-Volmer constant and can be calculated from the plot of F0/F vs. [Q] as the slope.
# The ratio of binding relative to the control sample exposed only to DMSO was plotted against the logarithm of concentration. The data points were fitted using the modified Hill function with offset (Origin®) (Equation (4)):(4) y=A1+(A2−A1)×x^n/K50^n+x^n where y is the ratio of binding (F/F0) and x is the concentration, A1 is the minimum of y values, A2 is the maximum of y values, K50 is the concentration corresponding to 50% binding and n is the Hill coefficient.
# T2 sequence (P02787 20-698): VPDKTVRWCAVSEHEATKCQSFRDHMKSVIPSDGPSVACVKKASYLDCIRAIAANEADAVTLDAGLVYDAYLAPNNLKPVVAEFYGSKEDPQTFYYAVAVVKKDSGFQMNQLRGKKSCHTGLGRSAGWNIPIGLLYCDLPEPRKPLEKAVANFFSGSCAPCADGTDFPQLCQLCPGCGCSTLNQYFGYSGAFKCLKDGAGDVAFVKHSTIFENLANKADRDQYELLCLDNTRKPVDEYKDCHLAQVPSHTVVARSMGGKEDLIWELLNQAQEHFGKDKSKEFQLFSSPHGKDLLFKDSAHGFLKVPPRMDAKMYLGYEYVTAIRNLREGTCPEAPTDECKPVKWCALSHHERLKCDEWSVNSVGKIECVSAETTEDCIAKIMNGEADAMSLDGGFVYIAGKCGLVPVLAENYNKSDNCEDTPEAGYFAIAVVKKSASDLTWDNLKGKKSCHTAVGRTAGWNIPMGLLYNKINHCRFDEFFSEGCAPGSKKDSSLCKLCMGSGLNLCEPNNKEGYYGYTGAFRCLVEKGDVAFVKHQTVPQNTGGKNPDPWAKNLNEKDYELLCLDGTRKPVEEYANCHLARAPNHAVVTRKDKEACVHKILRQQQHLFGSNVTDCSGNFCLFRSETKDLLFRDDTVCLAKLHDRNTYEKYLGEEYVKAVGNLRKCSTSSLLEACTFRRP
# T1 sequence (P02768 25-609): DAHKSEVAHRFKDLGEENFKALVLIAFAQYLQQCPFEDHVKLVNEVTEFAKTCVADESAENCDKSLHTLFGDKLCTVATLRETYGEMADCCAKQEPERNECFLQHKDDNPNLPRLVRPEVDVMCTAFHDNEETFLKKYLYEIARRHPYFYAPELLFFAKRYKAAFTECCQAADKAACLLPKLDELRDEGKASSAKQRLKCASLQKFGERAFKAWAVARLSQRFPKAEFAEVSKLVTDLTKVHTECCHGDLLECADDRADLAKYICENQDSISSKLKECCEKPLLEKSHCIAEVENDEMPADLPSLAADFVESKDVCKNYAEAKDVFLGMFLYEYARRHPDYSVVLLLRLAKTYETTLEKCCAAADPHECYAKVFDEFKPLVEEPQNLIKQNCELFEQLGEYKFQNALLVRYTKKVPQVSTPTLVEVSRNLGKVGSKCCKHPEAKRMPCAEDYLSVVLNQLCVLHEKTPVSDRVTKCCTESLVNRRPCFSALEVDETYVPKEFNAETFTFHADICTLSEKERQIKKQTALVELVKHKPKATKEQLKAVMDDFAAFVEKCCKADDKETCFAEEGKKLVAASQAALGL
Structure (SMILES),"Ka (association binding constant), HSA [1]","n (Hill Coefficient), HSA [1]","n (Number of Binding Sites), HSA [1]","Ksv (Stern-Volmer constant), HSA ([1]; 2.5 µM HSA)","Kq (bimolecular quenching constant), HSA [1]","fa (fraction of fluorophore accessible to the quencher), HSA [1]",IC50 [2],IC50 [3],IC50 [4],Kd [5],Kb (DNA binding constant) [6],"Ka (association binding constant), apo-Tf (Apo-transferrin (apo-Tf))","n (Hill Coefficient), apo-Tf (Apo-transferrin (apo-Tf))","n (Number of Binding Sites), apo-Tf (Apo-transferrin (apo-Tf))","Ksv (Stern-Volmer constant), apo-Tf (Apo-transferrin (apo-Tf); 1 µM apo-Tf)","Kq (bimolecular quenching constant), apo-Tf (Apo-transferrin (apo-Tf))","fa (fraction of fluorophore accessible to the quencher), apo-Tf (Apo-transferrin (apo-Tf))",Kd (Apo-transferrin (apo-Tf)),"Ksv (Stern-Volmer quenching constant, EB-DNA system) (EB-DNA system (CT-DNA))",K50 (EB Displacement Assay) (EB-DNA system (CT-DNA)),other results
"CCn1cc(C(=O)[O][Sm]([OH])[O]C(=O)c2cn(CC)c3cc4c(cc3c2=O)OCO4)c(=O)c2cc3c(cc21)OCO3.O.O [Sm oxo, [Sm(oxo)(OH)(H2O)] · H2O]",(4.28 ± 2.12) × 10^5 M^−1,1.55 ± 0.37,1.11 ± 0.04,(6.56 ± 0.90) × 10^4 M^−1,6.56e+12 M⁻¹ s⁻¹,1.44 ± 0.15,40.4 ± 6.27 µM,> 200 µM,41.5 ± 15.3 µM,4.69 ± 0.87 µM,9.33 (± 1.46) × 10^4 L∙mol^−1,(4.16 ± 1.09) × 10^4 M^−1,2.03 ± 0.32,0.95 ± 0.02,(9.34 ± 0.66) × 10^4 M^−1,9.34e+12 M⁻¹ s⁻¹,0.85 ± 0.05,5.73 ± 0.55 µM,(1.21 ± 0.03) × 10^4,41.55 ± 19.32 µM,–
"CCn1cc(C(=O)[O][Eu]([OH])[O]C(=O)c2cn(CC)c3cc4c(cc3c2=O)OCO4)c(=O)c2cc3c(cc21)OCO3.O [Eu oxo, [Eu(oxo)(OH)(H2O)]]",(4.75 ± 0.80) × 10^5 M^−1,1.33 ± 0.18,1.11 ± 0.01,11.25 (± 0.92) × 10^4 M^−1,1.125e+13 M⁻¹ s⁻¹,0.94 ± 0.04,73.7 ± 19.8 µM,> 200 µM,107 ± 16 µM,5.56 ± 0.86 µM,10.72 (± 2.47) × 10^5 L∙mol^−1,(2.74 ± 0.41) × 10^4 M^−1,0.95 ± 0.21,0.88 ± 0.01,(16.55 ± 0.94) × 10^4 M^−1,1.655e+13 M⁻¹ s⁻¹,0.81 ± 0.02,8.27 ± 4.17 µM,(1.26 ± 0.02) × 10^4,40.15 ± 11.82 µM,"quenching effect on HSA fluorescence peak ([1]; 2.5 µM HSA, compound up to 8 µM, λex 280 nm): ~ 58%; Ksv (Stern-Volmer constant), HSA ([1]; 2.5 µM HSA, listed as Eu-oxo): (11.25 ± 0.92) × 10^4 M^−1; quenching effect on apo-Tf fluorescence peak (Apo-transferrin (apo-Tf); 1 µM apo-Tf, compound up to 8 µM, λex 295 nm): 50%"
"CCn1cc(C(=O)[O][La]([OH])[O]C(=O)c2cn(CC)c3cc4c(cc3c2=O)OCO4)c(=O)c2cc3c(cc21)OCO3.O [La oxo, [La(oxo)(OH)(H2O)]]",(5.80 ± 2.01) × 10^5 M^−1,1.74 ± 0.21,1.14 ± 0.02,(6.82 ± 0.74) × 10^4 M^−1,6.82e+12 M⁻¹ s⁻¹,1.26 ± 0.11,> 100 µM,> 200 µM,52.1 ± 5.54 µM,6.22 ± 1.05 µM,2.57 (± 0.17) × 10^5 L∙mol^−1,(0.53 ± 0.23) × 10^4 M^−1,1.71 ± 0.21,0.77 ± 0.03,(14.13 ± 1.46) × 10^4 M^−1,1.413e+13 M⁻¹ s⁻¹,0.68 ± 0.03,8.89 ± 2.11 µM,1.27 (±0.03) × 10^4,37.05 ± 8.86 µM,"Ksv (Stern-Volmer quenching constant, EB-DNA system) (EB-DNA system (CT-DNA); listed as La-oxo): (1.27 ± 0.03) × 10^4"
